In experiment [1] the target is ROCK-II (h) (Homo sapiens, UniProt O75116). Put plainly: ROCK-II (h) radiometric kinase assay. It is filed as biochemical. Particulars: read-out: IC50 anti-ROCK-II activity. On the procedure: In a final reaction volume of 25 μl, ROCK-II (h) (5-10 mU) is incubated with 50 mM Tris pH 7.5, 0.1 mM EGTA, 30 μM […], 10 mM MgAcetate and [γ-^33P-ATP] (specific activity approx. 500 cpm/pmol, concentration as required). The reaction is initiated by the addition of the MgATP mix. After incubation for 40 minutes at room temperature, the reaction is stopped by the addition of 5 μl of a 3% phosphoric acid solution. 10 μl of the reaction is then spotted onto a P30 filtermat and washed three times for 5 minutes in 75 mM phosphoric acid and once in methanol prior to drying and scintillation counting.
Sequence of ROCK-II (h) (O75116 whole entry): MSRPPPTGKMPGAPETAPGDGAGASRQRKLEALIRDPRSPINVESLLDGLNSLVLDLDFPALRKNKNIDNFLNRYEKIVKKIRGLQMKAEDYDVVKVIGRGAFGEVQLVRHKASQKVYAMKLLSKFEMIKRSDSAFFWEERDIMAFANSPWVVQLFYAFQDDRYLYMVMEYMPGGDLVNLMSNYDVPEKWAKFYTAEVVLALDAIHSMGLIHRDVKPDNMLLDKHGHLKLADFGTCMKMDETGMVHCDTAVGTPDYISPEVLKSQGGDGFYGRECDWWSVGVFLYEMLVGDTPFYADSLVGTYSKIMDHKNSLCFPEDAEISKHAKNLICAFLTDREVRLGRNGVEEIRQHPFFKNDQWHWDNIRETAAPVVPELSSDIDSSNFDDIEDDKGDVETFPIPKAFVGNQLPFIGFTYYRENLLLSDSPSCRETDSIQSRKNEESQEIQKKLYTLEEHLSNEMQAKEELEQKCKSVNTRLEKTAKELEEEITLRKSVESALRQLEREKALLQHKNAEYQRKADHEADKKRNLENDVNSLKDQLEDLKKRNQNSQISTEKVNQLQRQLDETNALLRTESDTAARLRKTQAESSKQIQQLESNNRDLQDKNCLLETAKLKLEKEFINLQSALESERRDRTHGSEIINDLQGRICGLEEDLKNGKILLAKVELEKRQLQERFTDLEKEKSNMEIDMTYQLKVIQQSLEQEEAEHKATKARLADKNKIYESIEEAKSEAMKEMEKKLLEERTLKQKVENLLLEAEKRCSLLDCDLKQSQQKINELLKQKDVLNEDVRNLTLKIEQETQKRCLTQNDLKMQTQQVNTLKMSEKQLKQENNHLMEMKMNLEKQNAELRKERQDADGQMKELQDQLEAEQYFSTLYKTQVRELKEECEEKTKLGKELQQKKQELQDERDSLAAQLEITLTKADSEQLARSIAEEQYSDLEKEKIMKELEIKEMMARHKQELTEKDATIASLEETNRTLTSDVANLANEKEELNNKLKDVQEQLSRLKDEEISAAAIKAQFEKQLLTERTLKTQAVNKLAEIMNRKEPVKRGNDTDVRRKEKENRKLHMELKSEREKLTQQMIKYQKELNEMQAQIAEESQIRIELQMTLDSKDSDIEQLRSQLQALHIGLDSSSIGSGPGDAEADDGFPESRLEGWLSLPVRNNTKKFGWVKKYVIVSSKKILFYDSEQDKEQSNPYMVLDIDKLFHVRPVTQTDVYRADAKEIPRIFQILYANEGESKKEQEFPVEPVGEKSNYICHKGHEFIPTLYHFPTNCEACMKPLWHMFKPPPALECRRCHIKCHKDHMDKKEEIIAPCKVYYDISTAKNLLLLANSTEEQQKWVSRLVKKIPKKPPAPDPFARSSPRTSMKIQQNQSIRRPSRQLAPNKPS
The compound of example 29 was tested for anti-ROCK-II activity (assay as described above): […]

The subject of experiment [2] is rat MM1 hepatoma cells. The following applies: cited from earlier work.
Experiment [3] relates to MM1 cells. Particulars: continuous delivery using osmotic pumps, syngeneic rats; cited from earlier work.
The subject of experiment [4] is isolated rabbit urinary bladder smooth muscle. The following applies: cited from earlier work.

The structures appear in SMILES notation. A value given as a limit tells only on which side of the number the result lay.

The term IC50 denotes the concentration that inhibits the measured activity by half. With `NC(c1ccc(Cl)cc1)C1CCN(c2ccnc3[nH]ccc23)CC1` (centres unmarked) [Example 29, C-(4-Chlorophenyl)-C-[1-(1H-pyrrolo[2,3-b]pyridin-4-yl)piperidin-4-yl]methylamine], the 50% inhibitory concentration (IC50) in experiment [1] is under 0.1 µM.
On to `C[C@@H](N)[C@H]1CC[C@H](C(=O)Nc2ccncc2)CC1` [Example Y-27632], for which, in experiment [2], the “Rho-mediated activation of actomyosin” value is given as “blocked” and the invasive activity result is on record as “blocked”. Further, the “dissemination of MM1 cells” value in experiment [3] is given as “considerably reduced”. Further, the bethanechol-evoked contractions result in experiment [4] is on record as “attenuates”.

The values above are taken from patent publication US20090253718A1, “Pharmaceutical Compounds” (Astex Therapeutics Limited, priority 2006, published 2009).
